This is an account of results in patent publication US4346097A, “Method for treating convulsions with pyrazole-4-carboxamide derivatives” (Warner-Lambert Company, priority 1980, dated 1982).

Each structure is given as a SMILES string.

Data set [1] in a line: Subcutaneous Pentylenetetrazole Seizure Threshold Test, scMet. The data set is classed as in vivo. To be noted: for PI scMet: Protective Index, ratio of TD50 vs ED50 scMet; for ED50: sc. An excerpt:
The compounds of structural formula I are new chemical substances of value as pharmacological agents for the treatment of convulsions in warm-bloodedanimals. The term convulsions is intended to mean the characteristic body movements which are associated with the group of chronic central nervous system disorders termed, epilepsies. The anticonvulsant activity of representative compounds of formula I was established by the following standard test procedures: […]
3. Subcutaneous Pentylenetetrazole Seizure Threshold Test, scMet.
(§1) These procedures are described in E. A. Swinyard, et al., Epilepsia, 19, 409 (1978), which is incorporated herein by reference. The TD50 is defined as the median minimal neurotoxic dose.

A further data set in a line: Rotorod Test, TD50. To be noted: in vivo.
Text: (§2) The term convulsions is intended to mean the characteristic body movements which are associated with the group of chronic central nervous system disorders termed, epilepsies.
as §1

The nature of data set [2]: Maximal Electroshock Seizure Test, MES. The data set is classed as in vivo. The note with it: for PI MES: Protective Index, ratio of TD50 vs ED50 MES.
Text: as §2
2. Maximal Electroshock Seizure Test, MES.
as §1

For the molecule `Cc1ccccc1NC(=O)c1c(C)nn(C)c1N` [5-Amino-1,3-dimethyl-N-(2-methylphenyl)-1H-pyrazole-4-carboxamide], in data set [1], the “PI scMet” value stood at 1.94 and the ED50 was found to be 53.7 mg/kg. In “Rotorod Test, TD50”, this molecule returned a TD50 of 104 mg/kg. In data set [2], the ED50 was 25.7 mg/kg and the “PI MES” value amounted to 4.05.

Consider `Cc1nn(C)c(N)c1C(=O)Nc1cccc(Cl)c1` [5-Amino-N-(3-chlorophenyl)-1,3-dimethyl-1H-pyrazole-4-carboxamide], for which, in data set [1], the “PI scMet” value amounted to 2.35 and it took a dose of 99.6 mg/kg to reach the 50% effect level (ED50). The TD50 in the data set “Rotorod Test, TD50” is 234 mg/kg. Moreover, in data set [2], the ED50 turned out to be 47.3 mg/kg and the “PI MES” value is reported as 4.95.

Consider `NC(=O)N1c2ccccc2C=Cc2ccccc21` [CARBAMAZEPINE], for which, in data set [2], the ED50 was determined as 8.81 mg/kg.

Take `CCC1(c2ccccc2)NC(=O)N(C)C1=O` (stereo not shown) [MEPHENYTOIN]: in data set [1], the “PI scMet” value was found to be 5.05 and it took a dose of 30.4 mg/kg to reach the 50% effect level (ED50). Besides, the TD50 in the data set “Rotorod Test, TD50” came to 154 mg/kg. Further, in data set [2], the ED50 stood at 60.5 mg/kg and the “PI MES” value was found to be 2.54.
